Measured values as given in patent US12491170B2, “Stable treprostinil prodrugs” (United Therapeutics Corporation, priority 2020, dated 2025).
Like-named read-outs stand apart in the source and are kept apart here. Blank lines part the entries; values can stand above or below the molecule they belong to.

What was measured:
[1] = Hydrolysis of prodrugs to treprostinil at pH 6, 7, 8 and 40 C; format: physicochemical
From the text: Tables 24, 25 and 26 present data for hydrolysis of selected treprostinil prodrugs at pH 6, 7 and 8, respectively, and 40 C.

[2] = dog
[3] = Stability in cryopreserved hepatocytes, human
Protocol: (§1) Mixed-gender human cryopreserved hepatocytes, male Sprague-Dawley rat cryopreserved hepatocytes, and male Beagle dog cryopreserved hepatocytes were purchased from XenoTech. The hepatocytes were thawed and prepared according to the vendor's instructions, pooled into Krebs Henseleit buffer (KHB, pH 7.4), and kept on ice prior to the experiments. […] The final DMSO content in the incubation mixture was ≤0.1%. […] Aliquots of the test article were withdrawn (n=1) at 0, 15, 30, 60, and 120 minutes. […] Aliquots of 7-HC were withdrawn (n=1) at 0 and 15 minutes. The reaction was immediately terminated by adding two volumes of ice-cold acetonitrile (ACN) to the test article samples and three volumes of ACN containing internal standard to the positive control samples. The samples were then mixed and centrifuged to precipitate proteins. An aliquot of the supernatant was then diluted with water and analyzed by LC-MS/MS against calibration standards prepared in a matched matrix. […] All test article samples were analyzed for the dosed prodrugs as well as the drug, treprostinil. The test article concentration was compared to the concentration at time 0 to determine the percent of test article remaining at each time point. Half-lives and clearance values were calculated using GraphPad software, fitting to a single-phase exponential decay equation.

[4] = rat
[5] = Stability in cryopreserved hepatocytes, rat
Protocol: as §1

[6] = Stability in liver microsomes, human
Protocol: (§2) Mixed-gender human liver microsomes, male Sprague-Dawley rat liver microsomes, and male Beagle dog liver microsomes were purchased from XenoTech. The reaction mixture, minus NADPH, was prepared as described below. […] An aliquot of the reaction mixture (without cofactor) was equilibrated in a shaking water bath at 37° C. for 5 minutes. The reaction was initiated by the addition of cofactor, and the mixture was incubated in a shaking water bath at 37° C. Aliquots (200 μL) were withdrawn at 0, 10, 20, 30, and 60 minutes. Test article samples were immediately combined with 400 μL of ice-cold acetonitrile (ACN) to terminate the reaction. […] The samples were then mixed and centrifuged to precipitate proteins. Aliquots of the supernatant were removed, diluted 1:1 into distilled water containing internal standard, and analyzed by LC-MS/MS against calibration standards prepared in a matched matrix. All samples were analyzed for the dosed prodrugs as well as the drug, treprostinil. The test article concentration was compared to the concentration at time 0 to determine the percent of test article remaining at each time point. Half-lives and clearance were calculated using GraphPad software, fitting to a single-phase exponential decay equation.
(§3) • Liver Microsomes 0.5 mg/mL • NADPH (cofactor) 1 mM • Potassium Phosphate, pH 7.4 100 mM • Magnesium Chloride 5 mM • Test Article 1 μM

[7] = Stability in cryopreserved hepatocytes, dog
Protocol: as §1

[8] = Stability in liver microsomes, rat
Protocol: as §2, §3

[9] = Stability in liver microsomes, dog
Protocol: as §2, §3

[10] = Stability in human subcutaneous skin homogenate; settings: Skin Homogenate, Human
Protocol: The pool of skin homogenate was prepared by combining equal volumes of three lots that were tested in the initial skin homogenate lot assessment experiments.
A stock solution of calcein-AM was first prepared at 5 mM in DMSO, followed by a serial dilution into methanol at a concentration of 100 μM. 495 μL of skin homogenate was thawed and warmed to 37° C. A 5 μL aliquot of the 100 μM calcein-AM solution was spiked into the skin homogenate, for a final calcein-AM dosing concentration of 1 μM. After briefly mixing, 150 μL aliquots were removed in triplicate and transferred to 96-well Falcon plates. The plates were placed onto a Thermomixer and maintained at 37° C., with gentle shaking for the duration of the experiment. At each time point (0, 15, 30, 60, and 120 minutes), the plate was removed from the Thermomixer and transferred to a FLUOstar® plate reader, and the formation of calcein (Sigma) was monitored by fluorescence (490/515 nm). Calibration standards of calcein were prepared in distilled water by serial dilutions of a calcein DMSO stock at final concentrations ranging from 1 μM to 1 nM. All samples and standards were read concurrently (Table 13).
For each of the test articles, 495 μL of skin homogenate was added to triplicate centrifuge tubes. To each tube, 5 μL of a 100 μM solution of test article was added, for a final test article dosing concentration of 1 μM. The tubes were placed onto a Thermomixer and maintained at 37° C. with gentle shaking for the duration of the experiment. At each time point (0, 30, 60, and 120 minutes), a 100 μL aliquot was removed from each tube and combined with 200 μL of acetonitrile to stop the stability reaction. The tubes were mixed and centrifuged at 3000 rpm for 10 minutes. Aliquots of supernatant were removed and diluted 1:1 with distilled water containing internal standard (2 μM treprostinil-d4). Calibration standards for the treprostinil analysis were prepared for each test article in a surrogate matrix (supernatant from a mixture of 1:2 human plasma:acetonitrile), at concentrations ranging from 1 μM to 1 nM. Calibration standards were also diluted 1:1 with distilled water containing internal standard. The disappearance of each individual test article was monitored, as well as the formation of treprostinil (Table 14 and Table 15).

Hydrolysis to treprostinil, % Area, t = 1 week ([1]; pH 6, 40 C.): 0.47 % Area | Hydrolysis to treprostinil, % Area, t = 2 weeks ([1]; pH 6, 40 C.): 1.2 % Area | Hydrolysis to treprostinil, % Area, t = 3 weeks ([1]; pH 6, 40 C.): 1.9 % Area | Hydrolysis to treprostinil, % Area, t = 1 week ([1]; pH 7, 40 C.): 0.05 % Area | Hydrolysis to treprostinil, % Area, t = 2 weeks ([1]; pH 7, 40 C.): 1.0 % Area | Hydrolysis to treprostinil, % Area, t = 3 weeks ([1]; pH 7, 40 C.): 1.5 % Area | Hydrolysis to treprostinil, % Area, t = 1 week ([1]; pH 8, 40 C.): 0.73 % Area | Hydrolysis to treprostinil, % Area, t = 2 weeks ([1]; pH 8, 40 C.): 1.6 % Area | Hydrolysis to treprostinil, % Area, t = 3 weeks ([1]; pH 8, 40 C.): 2.6 % Area
Structure (SMILES): CCCCCC(CCC1C(O)CC2Cc3c(cccc3OCC(=O)O)CC21)OC(=O)c1ccc(O)c(O)c1 (centres unmarked) [Prodrug LXVI]

AUC [2]: 55.95 µmol·min/L | AUC ([3]; human): 39.76 µmol·min/L | AUC [4]: 49.70 µmol·min/L | AUC ([5]; rat): 70.03 µmol·min/L | AUC ([6]; human): 16.85 µmol·min/L | AUC ([7]; dog): 47.99 µmol·min/L
Structure (SMILES): CCCCCC(CCC1C(O)CC2Cc3c(cccc3OCC(=O)O)CC21)OC(=O)OC (centres unmarked) [IV]

AUC [2]: 0.00 µmol·min/L | AUC ([3]; human): 0.00 µmol·min/L | AUC [4]: 0.39 µmol·min/L | AUC ([5]; rat): 10.79 µmol·min/L | AUC ([6]; human): 0.00 µmol·min/L | AUC ([7]; dog): 0.00 µmol·min/L
Structure (SMILES): CCCCCC(O)CCC1C(O)CC2Cc3c(cccc3OCC(=O)NCC(=O)O)CC21 (centres unmarked) [VII]

AUC [2]: 14.33 µmol·min/L | AUC [4]: 4.12 µmol·min/L | Trep Concentration 0 min [8]: 0.0393 µM | Trep Concentration 10 min [8]: 0.0539 µM | Trep Concentration 20 min [8]: 0.0653 µM | Trep Concentration 30 min [8]: 0.0747 µM | Trep Concentration 60 min [8]: 0.0824 µM | Trep Concentration 0 min [6]: 0.12 µM | Trep Concentration 10 min [6]: 0.184 µM | Trep Concentration 20 min [6]: 0.24 µM | Trep Concentration 30 min [6]: 0.268 µM | Trep Concentration 60 min [6]: 0.275 µM | AUC ([6]; human): 14.33 µmol·min/L | Trep Concentration 0 min [9]: 0.104 µM | Trep Concentration 10 min [9]: 0.16 µM | Trep Concentration 20 min [9]: 0.222 µM | Trep Concentration 30 min [9]: 0.243 µM | Trep Concentration 60 min [9]: 0.342 µM
Structure (SMILES): CCCCCC(CCC1C(O)CC2Cc3c(cccc3OCC(=O)O)CC21)OC(=O)c1ccc(OC(F)(F)F)cc1 (centres unmarked) [LXIII]

Structure (SMILES): CCCCCC(CCC1C(O)CC2Cc3cccc(OCC(=O)O)c3CC21)OC(=O)CCC(=O)N1CCN(C)CC1 (centres unmarked) [XXXIV]
Trep Concentration 0 min ([10]; 0 min): 0 µM | Trep Concentration 30 min ([10]; 30 min): 0 µM | Trep Concentration 60 min ([10]; 60 min): 0 µM | Trep Concentration 120 min ([10]; 120 min): 0 µM | AUC ([10]; treprostinil 0-120 min): 0.00 µmol·min/L | AUC ([3]; Hepatocytes, Human, AUC of treprostinil concentration 0-120 min): 1.90 µmol·min/L | Trep Concentration (μM) 0 min ([3]; Hepatocytes, Human, treprostinil formed from test article dosed, 0 min): 0 µM | Trep Concentration (μM) 15 min ([3]; Hepatocytes, Human, treprostinil formed from test article dosed, 15 min): 0 µM | Trep Concentration (μM) 30 min ([3]; Hepatocytes, Human, treprostinil formed from test article dosed, 30 min): 0.0107 µM | Trep Concentration (μM) 60 min ([3]; Hepatocytes, Human, treprostinil formed from test article dosed, 60 min): 0.0174 µM | Trep Concentration (μM) 120 min ([3]; Hepatocytes, Human, treprostinil formed from test article dosed, 120 min): 0.0293 µM | AUC ([5]; Hepatocytes, Rat, AUC of treprostinil concentration 0-120 min): 8.62 µmol·min/L | Trep Concentration (μM) 0 min ([5]; Hepatocytes, Rat, treprostinil formed from test article dosed, 0 min): 0 µM | Trep Concentration (μM) 15 min ([5]; Hepatocytes, Rat, treprostinil formed from test article dosed, 15 min): 0.023 µM | Trep Concentration (μM) 30 min ([5]; Hepatocytes, Rat, treprostinil formed from test article dosed, 30 min): 0.0447 µM | Trep Concentration (μM) 60 min ([5]; Hepatocytes, Rat, treprostinil formed from test article dosed, 60 min): 0.0915 µM | Trep Concentration (μM) 120 min ([5]; Hepatocytes, Rat, treprostinil formed from test article dosed, 120 min): 0.105 µM | Trep Concentration 0 min ([8]; Liver Microsomes, Rat, 0 min): 0 µM | Trep Concentration 10 min ([8]; Liver Microsomes, Rat, 10 min): 0 µM | Trep Concentration 20 min ([8]; Liver Microsomes, Rat, 20 min): 0.0132 µM | Trep Concentration 30 min ([8]; Liver Microsomes, Rat, 30 min): 0.0158 µM | Trep Concentration 60 min ([8]; Liver Microsomes, Rat, 60 min): 0.0224 µM | AUC ([8]; Liver Microsomes, Rat, treprostinil 0-60 min): 0.78 µmol·min/L | Trep Concentration 0 min ([6]; Liver Microsomes, Human, 0 min): 0 µM | Trep Concentration 10 min ([6]; Liver Microsomes, Human, 10 min): 0 µM | Trep Concentration 20 min ([6]; Liver Microsomes, Human, 20 min): 0 µM | Trep Concentration 30 min ([6]; Liver Microsomes, Human, 30 min): 0 µM | Trep Concentration 60 min ([6]; Liver Microsomes, Human, 60 min): 0 µM | AUC ([6]; Liver Microsomes, Human, treprostinil 0-60 min): 0.00 µmol·min/L | AUC ([7]; Hepatocytes, Dog, AUC of treprostinil concentration 0-120 min): 1.30 µmol·min/L | Trep Concentration (μM) 0 min ([7]; Hepatocytes, Dog, treprostinil formed from test article dosed, 0 min): 0 µM | Trep Concentration (μM) 15 min ([7]; Hepatocytes, Dog, treprostinil formed from test article dosed, 15 min): 0 µM | Trep Concentration (μM) 30 min ([7]; Hepatocytes, Dog, treprostinil formed from test article dosed, 30 min): 0.0101 µM | Trep Concentration (μM) 60 min ([7]; Hepatocytes, Dog, treprostinil formed from test article dosed, 60 min): 0.0153 µM | Trep Concentration (μM) 120 min ([7]; Hepatocytes, Dog, treprostinil formed from test article dosed, 120 min): 0.0127 µM | Trep Concentration 0 min ([9]; Liver Microsomes, Dog, 0 min): 0 µM | Trep Concentration 10 min ([9]; Liver Microsomes, Dog, 10 min): 0 µM | Trep Concentration 20 min ([9]; Liver Microsomes, Dog, 20 min): 0 µM | Trep Concentration 30 min ([9]; Liver Microsomes, Dog, 30 min): 0 µM | Trep Concentration 60 min ([9]; Liver Microsomes, Dog, 60 min): 0.0104 µM | AUC ([9]; Liver Microsomes, Dog, treprostinil 0-60 min): 0.16 µmol·min/L

Hydrolysis to treprostinil, % Area, t = 1 week ([1]; pH 6, 40 C.): 0.00 % Area | Hydrolysis to treprostinil, % Area, t = 2 weeks ([1]; pH 6, 40 C.): 0.00 % Area | Hydrolysis to treprostinil, % Area, t = 3 weeks ([1]; pH 6, 40 C.): 0.00 % Area | Hydrolysis to treprostinil, % Area, t = 1 week ([1]; pH 7, 40 C.): 0.00 % Area | Hydrolysis to treprostinil, % Area, t = 2 weeks ([1]; pH 7, 40 C.): 0.00 % Area | Hydrolysis to treprostinil, % Area, t = 3 weeks ([1]; pH 7, 40 C.): 0.00 % Area | Hydrolysis to treprostinil, % Area, t = 1 week ([1]; pH 8, 40 C.): 0.00 % Area | Hydrolysis to treprostinil, % Area, t = 2 weeks ([1]; pH 8, 40 C.): 0.00 % Area | Hydrolysis to treprostinil, % Area, t = 3 weeks ([1]; pH 8, 40 C.): 0.00 % Area
Structure (SMILES): CCCCCC(CCC1C(O)CC2Cc3c(cccc3OCC(=O)O)CC21)OC(=O)c1ccc(O)cc1 (centres unmarked) [Prodrug LXVIII]
